Measured values as given in US7179823B1, “5-membered n-heterocyclic compounds with hypoglycemic and hypolipidemic activity” (Takeda Pharmaceutical Company Limited, priority 1999, dated 2007).
Like-named read-outs stand apart in the source and are kept apart here.

Key:
KKA^y mice [1] = experiment: Hypoglycemic and hypolipidemic actions in mice; format: in vivo; conditions: four days; for inhibition in vivo at 0.001 % / inhibition in vivo at 0.005 % / inhibition in vivo at 0.01 %: Mus musculus, po, 96 h; for inhibition in vivo at 0.005 %: 0.005% in powdery diet; for inhibition in vivo at 0.01 %: 0.01% in powdery diet
Excerpt: Hypoglycemic and Hypolipidemic Actions in Mice
Test compounds were mixed in a powdery diet (CE-2, Japan Clea) at the concentration of 0.01% (compounds of Examples 12, 30, 89, 186), 0.005% (compounds of Examples 7, 80, 82, 181, 182, 184, 256, 262, 283), 0.001% (compounds of Examples 9, 104, 110, 155, 156, 160, 167, 169, 172, 174, 176, 189), or 0.0003% (compounds of Examples 38, 40, 44), and freely given to KKA^y mice (9 to 12 weeks old, 5 mice in a group), a model of obese and type 2 diabetes mellitus, for four days. During this period, water was given freely. Blood was sampled from orbital venous plexus, and glucose and triglyceride levels in plasma separated from blood were determined enzymatically using L type Wako Glu2 (Wako Pure Chemical Industries, Ltd.) or L type Wako TG•H (Wako Pure Chemical Industries, Ltd.), respectively.
In the Table, the value of each treatment group is represented as percent reduction compared with the non-treatment group.

KKA^y mice [2] = experiment: Total cholesterol lowering action and plasma anti-arteriosclerosis index-enhancing action in mice; format: in vivo; conditions: four days, non-treatment group taken as 100%
Excerpt: Total Cholesterol Lowering Action and Plasma Anti-Arteriosclerosis Index-Enhancing Action in Mice
Test compounds were mixed in a powdery diet (CE-2, Japan Clea) at the concentration of 0.01% (compounds of Examples 12, 30, 89), 0.005% (compounds of Examples 38, 40, 44, 181, 184, 262, 283), or 0.001% (compounds of Examples 9, 156, 167, 172, 174, 176, 189), and freely given to KKA^y mice (9 to 12 weeks old, 5 mice per group), a model of obese and type 2 diabetes mellitus, for four days. During this period, water was given freely. Blood was sampled from orbital venous plexus and plasma was separated. Total cholesterol levels were determined by using L type Wako Cholesterol (Wako Pure Chemical Industries, Ltd.). Precipitation reagent for apoB containing lipoprotein was added to a part of the plasma to precipitate non-HDL lipoprotein, and cholesterol (HDL cholesterol) in the resulting supernatant was determined. The plasma anti-arteriosclerosis index [(HDL cholesterol/total cholesterol)×100] was calculated by using these cholesterol levels.
In the Table, “Total cholesterol lowering action (%)” represents the percent reduction (%) of total cholesterol level in the treatment group, when the total cholesterol level in the non-treatment group is taken as 100%. “Plasma anti-arteriosclerosis index-enhancing action (%)” represents the percent increase (%) of plasma anti-arteriosclerosis index in the treatment group, when the plasma anti-arteriosclerosis index in the non-treatment group is taken as 100%.

[3] = 0.001% in powdery diet, percent reduction of plasma glucose compared with the non-treatment group, read-out: Hypoglycemic action (%)
[4] = 0.001% in powdery diet, percent reduction of plasma triglyceride compared with the non-treatment group, read-out: Hypolipidemic action (%)
[5] = Mus musculus, po, 96 h, 0.001% in powdery diet, percent increase of [(HDL cholesterol/total cholesterol)×100], read-out: Plasma anti-arteriosclerosis index-enchancing action (%)
[6] = Mus musculus, po, 96 h, 0.001% in powdery diet, percent reduction of plasma total cholesterol
[7] = percent reduction of plasma glucose compared with the non-treatment group, read-out: Hypoglycemic action (%)
[8] = percent reduction of plasma triglyceride compared with the non-treatment group, read-out: Hypolipidemic action (%)

Compound: CCCOc1nn(Cc2ccc(OCc3nc(-c4ccccc4)oc3C)cc2)cc1CCC(=O)O [Example 156, 3-[1-[4-(5-methyl-2-phenyl-4-oxazolylmethoxy)benzyl]-3-propyloxy-1H-pyrazol-4-yl]propionic acid]
- inhibition in vivo at 0.001 % (KKA^y mice [1]; [3]): 45%
- inhibition in vivo at 0.001 % (KKA^y mice [1]; [4]): 80%
- change in vivo at 0.001 % (KKA^y mice [2]; [5]): 15%
- inhibition in vivo at 0.001 % (KKA^y mice [2]; [6]): 20%

Compound: CCOc1nn(Cc2ccc(OCc3nc(-c4ccccc4)sc3C)cc2)cc1CCC(=O)O [Example 182, 3-[3-ethoxy-1-[4-(5-methyl-2-phenyl-4-thiazolylmethoxy)benzyl]-1H-pyrazol-4-yl]propionic acid]
- inhibition in vivo at 0.005 % (KKA^y mice [1]; [7]): 34%
- inhibition in vivo at 0.005 % (KKA^y mice [1]; [8]): 12%

Compound: CCOc1nn(Cc2ccc(OCc3nc(-c4ccccc4)oc3C)cc2)cc1CCC(=O)O [Example 155, 3-[3-ethoxy-1-[4-(5-methyl-2-phenyl-4-oxazolylmethoxy)benzyl]-1H-pyrazol-4-yl]propionic acid]
- inhibition in vivo at 0.001 % (KKA^y mice [1]; [3]): 49%
- inhibition in vivo at 0.001 % (KKA^y mice [1]; [4]): 56%

Compound: Cc1oc(-c2ccco2)nc1COc1ccc(Cn2cc(CCC(=O)O)c(OCc3ccccc3)n2)cc1 [Example 169, 3-[3-benzyloxy-1-[4-[2-(2-furyl)-5-methyl-4-oxazolylmethoxy]benzyl]-1H-pyrazol-4-yl]propionic acid]
- inhibition in vivo at 0.001 % (KKA^y mice [1]; [3]): 48%
- inhibition in vivo at 0.001 % (KKA^y mice [1]; [4]): 39%

Compound: CCOc1nn(Cc2ccc(OCc3nc(-c4ccco4)oc3C)c(OC)c2)cc1CCC(=O)O [Example 174, 3-[3-ethoxy-1-[4-[2-(2-furyl)-5-methyl-4-oxazolylmethoxy]-3-methoxybenzyl]-1H-pyrazol-4-yl]propionic acid]
- inhibition in vivo at 0.001 % (KKA^y mice [1]; [3]): 40%
- inhibition in vivo at 0.001 % (KKA^y mice [1]; [4]): 52%
- change in vivo at 0.001 % (KKA^y mice [2]; [5]): 10%
- inhibition in vivo at 0.001 % (KKA^y mice [2]; [6]): 19%

Compound: CCOc1nn(Cc2ccc(OCc3nc(-c4cccs4)oc3C)cc2)cc1CCC(=O)O [Example 189, 3-[3-ethoxy-1-[4-[5-methyl-2-(2-thienyl)-4-oxazolylmethoxy]benzyl]-1H-pyrazol-4-yl]propionic acid]
- inhibition in vivo at 0.001 % (KKA^y mice [1]; [3]): 44%
- inhibition in vivo at 0.001 % (KKA^y mice [1]; [4]): 75%
- change in vivo at 0.001 % (KKA^y mice [2]; [5]): 20%
- inhibition in vivo at 0.001 % (KKA^y mice [2]; [6]): 21%

Compound: CCOc1nn(Cc2ccc(OCc3csc(-c4ccccc4)n3)cc2)cc1CCC(=O)O [Example 181, 3-[3-ethoxy-1-[4-(2-phenyl-4-thiazolylmethoxy)benzyl]-1H-pyrazol-4-yl]propionic acid]
- inhibition in vivo at 0.005 % (KKA^y mice [1]; [7]): 56%
- inhibition in vivo at 0.005 % (KKA^y mice [1]; [8]): 63%
- change in vivo at 0.005 % (KKA^y mice [2]; Mus musculus, po, 96 h, 0.005% in powdery diet, percent increase of [(HDL cholesterol/total cholesterol)×100], read-out: Plasma anti-arteriosclerosis index-enchancing action (%)): 21%
- inhibition in vivo at 0.005 % (KKA^y mice [2]; Mus musculus, po, 96 h, 0.005% in powdery diet, percent reduction of plasma total cholesterol): 25%

Compound: CCOc1nn(Cc2ccc(OCc3coc(-c4ccccc4)n3)cc2)cc1CCC(=O)O [Example 186, 3-[3-ethoxy-1-[4-(2-phenyl-4-oxazolylmethoxy)benzyl]-1H-pyrazol-4-yl]propionic acid]
- inhibition in vivo at 0.01 % (KKA^y mice [1]; [7]): 57%
- inhibition in vivo at 0.01 % (KKA^y mice [1]; [8]): 78%

Compound: CCOc1nn(Cc2ccc(OCc3nc(-c4cccs4)oc3C)c(OC)c2)cc1CCC(=O)O [Example 176]
- Hypoglycemic action (%) (KKA^y mice [1]; 0.001% in powdery diet, percent reduction of plasma glucose compared with the non-treatment group): 40%
- Hypolipidemic action (%) (KKA^y mice [1]; 0.001% in powdery diet, percent reduction of plasma triglyceride compared with the non-treatment group): 66%
- Plasma anti-arteriosclerosis index-enchancing action (%) (KKA^y mice [2]; 0.001% in powdery diet, percent increase of [(HDL cholesterol/total cholesterol)×100]): 11%
- Total cholesterol lowering action (%) (KKA^y mice [2]; 0.001% in powdery diet, percent reduction of plasma total cholesterol): 23%

Compound: Cc1oc(-c2ccccc2)nc1COc1ccc(Cn2cc(CCC(=O)O)c(OCc3ccccc3)n2)cc1 [Example 160, 3-[3-benzyloxy-1-[4-(5-methyl-2-phenyl-4-oxazolylmethoxy)benzyl]-1H-pyrazol-4-yl]propionic acid]
- inhibition in vivo at 0.001 % (KKA^y mice [1]; [3]): 54%
- inhibition in vivo at 0.001 % (KKA^y mice [1]; [4]): 57%
- melting point: 108 to 109 °C

Compound: O=C(O)CCc1cn(Cc2ccc(OCc3csc(-c4ccccn4)n3)cc2)cc1-c1ccccc1 [Example 32, 3-[4-phenyl-1-[4-[2-(2-pyridyl)-4-thiazolylmethoxy)benzyl]-3-pyrrolyl]propionic acid]
- melting point: 117 to 118 °C

Compound: CCOc1nn(Cc2ccc(OCc3nc(-c4ccccc4)ccc3Cl)cc2)cc1CCC(=O)O [Example 244, 3-[1-[4-(3-chloro-6-phenyl-2-pyridylmethoxy)benzyl]-3-ethoxy-1H-pyrazol-4-yl]propionic acid]
- melting point: 120 to 121 °C

Compound: CCOc1cc(Cn2cc(CCC(=O)O)c(-c3ccccc3)c2)cc(OCc2csc(-c3ccccc3)n2)c1 [Example 274, 3-[1-[3-ethoxy-5-(2-phenyl-4-thiazolylmethoxy)benzyl]-4-phenyl-3-pyrrolyl]propionic acid]
- melting point: 109 to 110 °C

Compound: CCOC(=O)c1cn(Cc2ccc(OCc3ccccc3)cc2)nc1-c1ccc(F)cc1 [Example 280, ethyl 1-(4-benzyloxybenzyl)-3-(4-fluorophenyl)-1H-pyrazole-4-carboxylate]
- melting point: 103 to 104 °C

Compound: CCOc1nn(Cc2cccc(OCc3nc(-c4ccccc4)oc3C)n2)cc1CCC(=O)O [Example 223, 3-[3-ethoxy-1-[6-(5-methyl-2-phenyl-4-oxazolylmethoxy)-2-pyridylmethyl]-1H-pyrazol-4-yl]propionic acid]
- melting point: 144 to 145 °C

Compound: Cc1oc(-c2ccccc2)nc1COc1ccc(Cn2cc(CCC(=O)O)c(-c3ccccc3)n2)nc1 [Example 306, 3-[1-[5-(5-methyl-2-phenyl-4-oxazolylmethoxy)-2-pyridylmethyl]-3-phenyl-1H-pyrazol-4-yl]propionic acid]
- melting point: 175 to 176 °C

Compound: O=C(O)CCc1cn(Cc2ccc(OCc3ccc(-c4ccccc4)cn3)cc2)cc1-c1ccccc1 [Example 279, 3-[1-[4-(5-phenyl-2-pyridylmethoxy)benzyl]-4-phenyl-3-pyrrolyl]propionic acid]
- melting point: 169 to 170 °C

Compound: O=C(O)CCc1cn(Cc2ccc(OCc3cccs3)cc2)cc1-c1ccccc1 [Example 20, 3-[4-phenyl-1-[4-(2-thienylmethoxy)benzyl]-3-pyrrolyl]propionic acid]
- melting point: 127 to 128 °C

Compound: O=C(O)CCc1cn(Cc2ccc(OCc3csc(-c4ccncc4)n3)cc2)cc1-c1ccccc1 [Example 34, 3-[4-phenyl-1-[4-[2-(4-pyridyl)-4-thiazolylmethoxy)benzyl]-3-pyrrolyl]propionic acid]
- melting point: 149 to 150 °C

Compound: CCOc1nn(Cc2ccc(OCc3nc(-c4ccccc4)oc3C)cc2)cc1CC(=O)O [Example 260, 3-ethoxy-1-[4-(5-methyl-2-phenyl-4-oxazolylmethoxy)benzyl]-1H-pyrazol-4-ylacetic acid]
- melting point: 125 to 126 °C

Compound: CCOc1nn(Cc2ccc(OCc3cn4c(Cl)cccc4n3)cc2)cc1CCC(=O)O [Example 225, 3-[1-[4-(5-chloroimidazo[1,2-a]pyridin-2-ylmethoxy)benzyl]-3-ethoxy-1H-pyrazol-4-yl]propionic acid]
- melting point: 153 to 154 °C

Compound: CCOc1nn(Cc2ccc(OCc3csc(-c4ccccc4)n3)nc2)cc1CCC(=O)O [Example 254, 3-[3-ethoxy-1-[6-(2-phenyl-4-thiazolylmethoxy)-3-pyridylmethyl]-1H-pyrazol-4-yl]propionic acid]
- melting point: 121 to 122 °C

Compound: Cc1oc(-c2ccco2)nc1COc1ccc(Cn2cc(CC(=O)O)c(-c3ccccc3)n2)cn1 [Example 316, [1-[6-[2-(2-furyl)-5-methyl-4-oxazolylmethoxy]-3-pyridylmethyl]-3-phenyl-1H-pyrazol-4-yl]acetic acid]
- melting point: 135 to 136 °C
